Source: PubChem BioAssay (NCI)
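All cell lines were grown in 96-well plates and treated with compound for 48 hours. GI50 marks 50% less growth. TGI denotes the concentration required for complete inhibition of growth.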

Columns and labels:
Test in all cases: NCI tumour cell line growth inhibition, 48 h
[1] = system: OVCAR-8 ovarian
[2] = system: EKVX NSCLC
[3] = system: SR leukemia
[4] = system: SK-OV-3 ovarian
[5] = system: PC-3 prostate
[6] = system: SNB-19 CNS
[7] = system: HOP-92 NSCLC
[8] = system: MOLT-4 leukemia
[9] = system: SN12C renal
[10] = system: MDA-MB-231 breast
[11] = system: OVCAR-5 ovarian
[12] = system: HL-60(TB) leukemia
[13] = system: IGROV1 ovarian
[14] = system: K-562 leukemia
[15] = system: KM12 colon
[16] = system: SNB-75 CNS
[17] = system: CCRF-CEM leukemia
[18] = system: NCI/ADR-RES ovarian
[19] = system: T-47D breast
[20] = system: TK-10 renal
[21] = system: DU-145 prostate
[22] = system: LOX IMVI melanoma
[23] = system: UACC-62 melanoma
[24] = system: HCC-2998 colon
[25] = system: SK-MEL-2 melanoma
[26] = system: SK-MEL-5 melanoma
[27] = system: HT29 colon
[28] = system: U251 CNS
[29] = system: OVCAR-3 ovarian
[30] = system: MCF7 breast
[31] = system: A498 renal
[32] = system: SF-539 CNS
[33] = system: UACC-257 melanoma
[34] = system: OVCAR-4 ovarian
[35] = system: HS 578T breast
[36] = system: COLO 205 colon
[37] = system: SF-268 CNS
[38] = system: UO-31 renal
[39] = system: CAKI-1 renal
[40] = system: MDA-MB-435
[41] = system: ACHN renal
[42] = system: A549 NSCLC
[43] = system: NCI-H23 lung
[44] = system: 786-0 renal
[45] = system: SK-MEL-28 melanoma
[46] = system: NCI-H226 lung
[47] = system: SW-620 colon
[48] = system: RPMI-8226 leukemia
[49] = system: BT-549 breast
[50] = system: MALME-3M melanoma
[51] = system: HCT-116 colon
[52] = system: HOP-62 NSCLC
[53] = system: NCI-H522 lung
[54] = system: RXF 393 renal
[55] = system: M14 melanoma
[56] = system: NCI-H460 lung
[57] = system: HCT-15 colon

`CC(C)c1ccc(C(=O)Nc2sc3c(CN(C)C)c(O)ccc3c2C(N)=O)cc1` was tested, and the GI50 [1] was 3.07 µM, the TGI [1] was greater than 100 µM and the GI50 [2] was 6.28 µM. For the same compound, the TGI [2] was greater than 100 µM, the GI50 [3] was 2.89 µM and the TGI [3] was 8.79 µM. The GI50 [4] was 6.72 µM, the TGI [4] was greater than 100 µM and the GI50 [5] was 2.55 µM. For the same compound, the TGI [5] was greater than 100 µM, the GI50 [6] was 3.23 µM and the TGI [6] was greater than 100 µM. For the same compound, the GI50 [7] was 3.48 µM, the TGI [7] was greater than 100 µM and the GI50 [8] was 2.32 µM. For the same compound, the TGI [8] was 8.51 µM, the GI50 [9] was 2.2 µM and the TGI [9] was greater than 100 µM. It also gave a GI50 [10] of 3.27 µM, a TGI [10] greater than 100 µM and a GI50 [11] of 2.66 µM. For the same compound, the TGI [11] was greater than 100 µM, the GI50 [12] was 1.74 µM and the TGI [12] was 4.38 µM. It also gave a GI50 [13] of 2.02 µM, a TGI [13] greater than 100 µM and a GI50 [14] of 0.409 µM. The TGI [14] was 4.55 µM, the GI50 [15] was 0.728 µM and the TGI [15] was greater than 100 µM. For the same compound, the GI50 [16] was 2.09 µM, the TGI [16] was greater than 100 µM and the GI50 [17] was 2.2 µM. The TGI [17] was 9.37 µM, the GI50 [18] was 2.64 µM and the TGI [18] was greater than 100 µM.
`O=C(O)CCC(NC(=S)S)C(=O)O.[Na+].[Zn+2]` (centres undefined) showed a GI50 [19] greater than 50 µM, a TGI [19] greater than 50 µM and a GI50 [1] greater than 50 µM. The TGI [1] was greater than 50 µM, the GI50 [20] was greater than 50 µM and the TGI [20] was greater than 50 µM. It also gave a GI50 [21] greater than 50 µM, a TGI [21] greater than 50 µM and a GI50 [22] greater than 50 µM. It also gave a TGI [22] greater than 50 µM, a GI50 [23] greater than 50 µM and a TGI [23] greater than 50 µM. The GI50 [24] was greater than 50 µM, the TGI [24] was greater than 50 µM and the GI50 [25] was greater than 50 µM. The TGI [25] was greater than 50 µM, the GI50 [26] was greater than 50 µM and the TGI [26] was greater than 50 µM. It also gave a GI50 [27] greater than 50 µM, a TGI [27] greater than 50 µM and a GI50 [28] greater than 50 µM. For the same compound, the TGI [28] was greater than 50 µM, the GI50 [4] was greater than 50 µM and the TGI [4] was greater than 50 µM. It also gave a GI50 [29] greater than 50 µM, a TGI [29] greater than 50 µM and a GI50 [30] greater than 50 µM. The TGI [30] was greater than 50 µM, the GI50 [31] was greater than 50 µM and the TGI [31] was greater than 50 µM. The GI50 [5] was greater than 50 µM, the TGI [5] was greater than 50 µM and the GI50 [32] was greater than 50 µM. It also gave a TGI [32] greater than 50 µM, a GI50 [6] greater than 50 µM and a TGI [6] greater than 50 µM. For the same compound, the GI50 [7] was greater than 50 µM, the TGI [7] was greater than 50 µM and the GI50 [33] was greater than 50 µM. The TGI [33] was greater than 50 µM, the GI50 [8] was greater than 50 µM and the TGI [8] was greater than 50 µM. For the same compound, the GI50 [34] was greater than 50 µM, the TGI [34] was greater than 50 µM and the GI50 [35] was greater than 50 µM. It also gave a TGI [35] greater than 50 µM, a GI50 [36] greater than 50 µM and a TGI [36] greater than 50 µM. For the same compound, the GI50 [37] was greater than 50 µM, the TGI [37] was greater than 50 µM and the GI50 [38] was greater than 50 µM. For the same compound, the TGI [38] was greater than 50 µM, the GI50 [9] was greater than 50 µM and the TGI [9] was greater than 50 µM. It also gave a GI50 [39] greater than 50 µM, a TGI [39] greater than 50 µM and a GI50 [40] greater than 50 µM. It also gave a TGI [40] greater than 50 µM, a GI50 [41] greater than 50 µM and a TGI [41] greater than 50 µM. The GI50 [10] was greater than 50 µM, the TGI [10] was greater than 50 µM and the GI50 [42] was greater than 50 µM. For the same compound, the TGI [42] was greater than 50 µM, the GI50 [11] was greater than 50 µM and the TGI [11] was greater than 50 µM. For the same compound, the GI50 [12] was greater than 50 µM, the TGI [12] was greater than 50 µM and the GI50 [13] was greater than 50 µM. For the same compound, the TGI [13] was greater than 50 µM, the GI50 [14] was greater than 50 µM and the TGI [14] was greater than 50 µM. The GI50 [43] was greater than 50 µM, the TGI [43] was greater than 50 µM and the GI50 [15] was greater than 50 µM. For the same compound, the TGI [15] was greater than 50 µM, the GI50 [44] was greater than 50 µM and the TGI [44] was greater than 50 µM. The GI50 [45] was greater than 50 µM, the TGI [45] was greater than 50 µM and the GI50 [46] was greater than 50 µM. For the same compound, the TGI [46] was greater than 50 µM, the GI50 [16] was greater than 50 µM and the TGI [16] was greater than 50 µM. The GI50 [17] was greater than 50 µM, the TGI [17] was greater than 50 µM and the GI50 [47] was greater than 50 µM. The TGI [47] was greater than 50 µM, the GI50 [48] was greater than 50 µM and the TGI [48] was greater than 50 µM. For the same compound, the GI50 [49] was greater than 50 µM, the TGI [49] was greater than 50 µM and the GI50 [50] was greater than 50 µM. For the same compound, the TGI [50] was greater than 50 µM, the GI50 [51] was greater than 50 µM and the TGI [51] was greater than 50 µM. The GI50 [52] was greater than 50 µM, the TGI [52] was greater than 50 µM and the GI50 [53] was greater than 50 µM. It also gave a TGI [53] greater than 50 µM, a GI50 [54] greater than 50 µM and a TGI [54] greater than 50 µM. It also gave a GI50 [18] greater than 50 µM, a TGI [18] greater than 50 µM and a GI50 [55] greater than 50 µM. For the same compound, the TGI [55] was greater than 50 µM, the GI50 [56] was greater than 50 µM and the TGI [56] was greater than 50 µM. For the same compound, the GI50 [57] was greater than 50 µM and the TGI [57] was greater than 50 µM.
`CC1=C2C(=O)c3ccccc3C2=C(C)S(=O)(=O)O1` was tested, and the TGI [19] was greater than 10 µM, the TGI [23] was greater than 10 µM and the TGI [25] was greater than 10 µM. The TGI [26] was greater than 10 µM, the TGI [3] was greater than 10 µM and the TGI [28] was greater than 10 µM. The TGI [4] was greater than 10 µM, the TGI [30] was greater than 10 µM and the TGI [8] was greater than 10 µM. It also gave a TGI [34] greater than 10 µM, a TGI [36] greater than 10 µM and a TGI [37] greater than 10 µM. For the same compound, the TGI [39] was greater than 10 µM, the TGI [40] was greater than 10 µM and the TGI [41] was greater than 10 µM. For the same compound, the TGI [42] was greater than 10 µM, the TGI [11] was greater than 10 µM and the TGI [12] was greater than 10 µM. It also gave a TGI [13] greater than 10 µM, a TGI [14] greater than 10 µM and a TGI [43] greater than 10 µM. It also gave a TGI [44] greater than 10 µM, a TGI [45] greater than 10 µM and a TGI [16] greater than 10 µM. The TGI [17] was greater than 10 µM, the TGI [47] was greater than 10 µM and the TGI [48] was greater than 10 µM. The TGI [50] was greater than 10 µM, the TGI [52] was greater than 10 µM and the TGI [54] was greater than 10 µM. The TGI [18] was greater than 10 µM, the TGI [55] was greater than 10 µM and the TGI [56] was greater than 10 µM.
